US20250127698A1, “Hair Perming Compositions With Amine Derivatives” (ELC Management LLC, priority 2023, published 2025)

Key:
[1] = DSC keratin denaturation temperature change after curling treatment; design: species or system human; conditions: for ΔT (TUntreated−TAlkalizer, keratin denaturation temperature): Type 1 Chinese hair after curling treatment, larger ΔT indicates more damage; for damage to hair (in words): hair curling treatment, Type 1 Chinese hair
From the text: (§1) This damage occurs at the level of keratin proteins.
(§2) Untreated hair was used as a control.
(§3) A larger ΔT indicates more damage.

[2] = DSC keratin denaturation temperature change after straightening treatment; design: species or system human; conditions: for ΔT (TUntreated−TAlkalizer, keratin denaturation temperature): Type 3 Caucasian hair after straightening, larger ΔT indicates more damage; for damage to hair (in words): hair straightening treatment, Type 3 Caucasian hair
From the text: as §1, §2, §3

[3] = active component of alkalizer; cited from earlier work
[4] = DSC keratin denaturation temperature change after curling treatment; conditions: for ΔT (TUntreated−TAlkalizer, keratin denaturation temperature): Type 1 Caucasian hair after curling treatment, larger ΔT indicates more damage
Method: It is known that the denaturation of keratin in hair can be detected by differential scanning calorimetry (DSC). DSC is a thermal analysis technique used to measure phase transition temperatures and heat of transformation (enthalpy) for endothermic and exothermic reactions.
For all of the test samples discussed above, DSC measurements were performed using the Discovery DSC 2500 (from TA Instruments. New Castle, DE). The experiments were carried out over a temperature range of 40° C. to 200° C., with a scan rate of 5° C./min under nitrogen protection. DSC samples were prepared by cutting tress samples into pieces (0.1 to 1.0 mm in size) and weighing. The hair samples were mixed with deionized water, and then sealed in high volume pans for at least 6 hours before measuring. The phase transition temperature (keratin denaturation temperature) of each hair sample was analyzed using TRIOS software (Discovery DSC 2500). Untreated hair was used as a control.
Each hair sample was analyzed at least twice, and the average temperature was obtained for data analysis. This was subtracted from the denaturation temperature of the control sample (ΔT=TUntreated−TAlkalizer). A larger ΔT indicates more damage.

[5] = pH of hair perming composition; assay type: physicochemical; conditions: for pH: hair perming composition: base of Table 2 (7.50% thioglycolic acid) plus alkalizer, same molar percentage of alkalizer
From the text: For testing, we prepared the hair perming compositions shown by Tables 2 and 3, below. […] All compositions contain the same molar percentage of alkalizer, the water content being adjusted accordingly.

[6] = Curl efficiency after hair curling treatment; design: species or system human; conditions: for Curl Efficiency (%) After Treatment, 1 Wash and Dry: 1 wash with 5% SDS solution; for Curl Efficiency (%) After Treatment, 8 Washes and Dry: equivalent of 8 washes with 5% SDS solution
From the text: (§4) The ability of each test composition to curl hair was established by measuring “curl efficiency”. Curl efficiency is a measure of curl tightness following a hair curling treatment. The higher the efficiency, the tighter the curl. We used a well-known method of measuring curl efficiency, wherein a portion of untreated straight hair of known length, Lu, is secured on an arrangement of pegs to form a sine wave pattern of five cycles, crest-to-crest. Because the pegs are fixed, the ideal length, Li, of the portion of hair when arranged into the five-cycle wave pattern, is known. Starting with a straight swatch of hair of length Lu, the ideal outcome would be a curled swatch of hair with a length of Li. Curl efficiency is a measure of how closely the ideal is attained.
(§5) Two types of hair samples were tested for curling; mixed sourced virgin Type 1Caucasian hair, and single sourced virgin Type 1 hair. For straightening, mixed sourced virgin Type 2C (very wavy) Caucasian hair was tested. Hair straightening test samples were prepared by collecting hair fibers into tresses, and clamping each tress at both ends. For those test samples that were to undergo a straightening treatment, the length, Lu, was measured between two previously determined points.
(§6) Each hair tress was wetted (reverse osmosis water). For curling, each hair tress was wound along a peg board to form a sine wave pattern of five cycles, as described above. For straightening, each hair tress was held on a board in a straight conformation, tension was applied, and the ends of the tress were secured. All test samples (curling or straightening) were allowed to dry before proceeding. Each board with a hair tress test sample was dipped for 10 seconds into a beaker with one of the hair perming compositions. After removing a board from solution, it was immediately placed in an oven for 20 minutes at 37° C. (normal body temperature). The test sample was removed from the oven, and rinsed for five minutes with 37° C. water, being careful not to allow the running water to fall directly on the hair tresses. After blotting with a paper towel, test samples were allowed to rest for five minutes at room temperature, for air oxidation to occur. The hair straightening test samples were removed from the board, blow dried and flat ironed at 200° C., which is commonly done in salon practice. At this point, the ideal length, Li, was measured between the two previously determined point mentioned above. Thereafter, each sample was rebound to the board.
(§7) Each bound hair tress was submerged for ten seconds in a 2% solution of H2O2 to neutralize the reducing agent and promote S-S bond formation, so that the hair tress would retain a desired shape (sine wave pattern or straight) when removed from the board. Each hair tress rested at room temperature for about five minutes, then was rinsed under 37° C. running water for five minutes, and subsequently blotted with a paper towel. Each test sample hair tress was removed from the board, laid on a flat surface, and allowed to dry. The fully permed dry tresses were washed in 5% SDS (sodium dodecyl sulfate) solution (which simulates salon practice) and allowed to dry overnight.
(§8) For the curling test samples, the length, Lt, of five waves, crest to crest was measured. For the straightening test samples, the final length, Lt, was measured between the two previously determined points. At this point, differential scanning calorimetry (DSC) measurements were made on a portion of each hair tress test sample. Also, for longevity performance, each tress was subjected to the equivalent of eight hand washings in 5% SDS solution using the GyroWash color fastness to laundering tester, and allowed to dry, before another length measurement, Lt, was made.
(§9) Curl efficiencies were computed using Equation 1.
(§10) [formula] • Lu=length of the untreated hair tress • Lt=crest-to-crest length of the five-wave portion of the treated hair tress • Li=ideal length of curled hair […]

[7] = Curl efficiency after hair curling treatment; design: species or system human; % Change In Curl Efficiency From 1 to 8 Washes: concentration or dose not given beside the values; conditions: for Curl Efficiency (%) After Treatment, 1 Wash and Dry: 1 wash with 5% SDS solution; for Curl Efficiency (%) After Treatment, 8 Washes and Dry: equivalent of 8 washes with 5% SDS solution
From the text: as §4, §5, §6, §7, §8, §9, §10

[8] = Straightening efficiency after hair straightening treatment; design: species or system human; conditions: Type 2C Caucasian hair; 1 wash with 5% SDS solution
From the text: The ability of each test composition to straighten curly hair was established by measuring “straightening efficiency”. Straightening efficiency represents the degree to which curly hair is made straight by a hair straightening treatment. We start with a curly, untreated hair tress of length Lu. The tress has an ideal straight length of Li, which is the length of the untreated tress when flat ironed to its maximum, straight length. After treatment the tress has a length of Lt. Straightening efficiency is the gain in length as a percentage of the maximum possible gain in length. […] A straightening efficiency of 100% means that the treated tress retained the maximum possible length.
as §5, §6, §7, §8
Straightening efficiencies were computed using Equation 2.
[formula] • Lu=length of the untreated hair tress • Lt=length of treated hair tress • Li=ideal length of straightened hair
(Li−Lu) represents the maximum possible increase in length as a result of treatment. […]

| Compound | ΔT (TUntreated−TAlkalizer, keratin denaturation temperature) [1] [C. °] | ΔT (TUntreated−TAlkalizer, keratin denaturation temperature) [2] [°C] | pKa [3] | ΔT (TUntreated−TAlkalizer, keratin denaturation temperature) [4] [°C] | pH of alkalizer composition ([5]; Table 7) | pH of alkalizer composition ([5]; Table 8) | pH of alkalizer composition ([5]; Table 9) | pH [5] | % Change In Curl Efficiency From 1 to 8 Washes ([6]; Type 1 Caucasian hair) [%] | Curl Efficiency (%) After Treatment, 1 Wash and Dry ([6]; Type 1 Caucasian hair) [%] | Curl Efficiency (%) After Treatment, 8 Washes and Dry ([6]; Type 1 Caucasian hair) [%] | % Change In Curl Efficiency From 1 to 8 Washes ([7]; Type 1 Chinese hair) [%] | Curl Efficiency (%) After Treatment, 1 Wash and Dry ([7]; Type 1 Chinese hair) [%] | Curl Efficiency (%) After Treatment, 8 Washes and Dry ([7]; Type 1 Chinese hair) [%] | Straightening Efficiency (%) After Treatment, 1 Wash and Dry [8] [%] | damage to hair (in words) [1] | damage to hair (in words) [2] | also measured |
| --- | --- | --- | --- | --- | --- | --- | --- | --- | --- | --- | --- | --- | --- | --- | --- | --- | --- | --- |
| CC(C)(N)CO [AMP, Aminomethyl propanol, reference compound] | 1.65 | 2.60 | 9.82 | 3.11 |  |  |  |  |  |  |  |  |  |  |  |  |  |  |
| NC(CO)CO [Serinol, 2-Amino-1,3-propanediol] | 0.62 | 0.50 |  | 1.76 | 8.68 | 8.68 | 8.68 | 8.68 | −8.15 | 45.79 | 42.06 | −14.82 | 50.47 | 42.99 | 88.24 | less damage than ammonium hydroxide | less damage than ammonium hydroxide | damage to hair (in words) ([4]; hair curling treatment, Type 1 Caucasian hair): less damage than ammonium hydroxide |
| [Na+].[OH-] [NaOH, reference compound] | 5.60 | 4.60 |  | 6.34 | 10.56 | 10.56 | 10.56 | 10.56 | −17.64 | 47.66 | 39.25 | −19.92 | 54.86 | 43.93 | 65.71 |  |  |  |
| DL-2-amino-1-propanol [DL-2-AP] | 3.49 | 3.20 | 9.6 | 3.95 | 9.45 | 9.45 | 9.45 | 9.45 | −11.11 | 50.47 | 44.86 | −21.01 | 69.81 | 55.14 | 95.35 | did not perform as well as the other alkalizers | more damage than ammonium hydroxide, MEA or AMP | curl after the equivalent of 8 washes (in words) ([6]; Caucasian hair): still had the most curl; curl lost after the equivalent of 8 washes, as percentage of initial curl (in words) ([6]; Caucasian hair): lost the most curl of the tested samples; imparting curl (in words) ([6]; Type 1 Caucasian hair): best at imparting curl; curl after the equivalent of 8 washes (in words) ([7]; Chinese hair): still had the most curl; curl lost after the equivalent of 8 washes, as percentage of initial curl (in words) ([7]; Chinese hair): lost the most curl of the tested samples; imparting curl (in words) ([7]; Type 1 Chinese hair): best at imparting curl |
